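Following 48 hours of exposure in 96-well plates, responses at five concentrations were used to interpolate endpoints linearly. At the GI50, growth is halved. TGI: concentration producing complete growth inhibition.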
Legend:
Experiment in all cases: DTP human tumour cell line panel, 48 h
786-0 renal = system: 786-0 renal
A498 renal = system: A498 renal
A549 NSCLC = system: A549 NSCLC
ACHN renal = system: ACHN renal
BT-549 breast = system: BT-549 breast
CAKI-1 renal = system: CAKI-1 renal
CCRF-CEM leukemia = system: CCRF-CEM leukemia
COLO 205 colon = system: COLO 205 colon
DU-145 prostate = system: DU-145 prostate
EKVX NSCLC = system: EKVX NSCLC
HCC-2998 colon = system: HCC-2998 colon
HCT-116 colon = system: HCT-116 colon
HCT-15 colon = system: HCT-15 colon
HL-60(TB) leukemia = system: HL-60(TB) leukemia
HOP-62 NSCLC = system: HOP-62 NSCLC
HOP-92 NSCLC = system: HOP-92 NSCLC
HS 578T breast = system: HS 578T breast
HT29 colon = system: HT29 colon
IGROV1 ovarian = system: IGROV1 ovarian
K-562 leukemia = system: K-562 leukemia
KM12 colon = system: KM12 colon
LOX IMVI melanoma = system: LOX IMVI melanoma
M14 melanoma = system: M14 melanoma
MALME-3M melanoma = system: MALME-3M melanoma
MCF7 breast = system: MCF7 breast
MDA-MB-231 breast = system: MDA-MB-231 breast
MDA-MB-435 = system: MDA-MB-435
MDA-MB-468 breast = system: MDA-MB-468 breast
MOLT-4 leukemia = system: MOLT-4 leukemia
NCI-H226 lung = system: NCI-H226 lung
NCI-H23 lung = system: NCI-H23 lung
NCI-H460 lung = system: NCI-H460 lung
NCI-H522 lung = system: NCI-H522 lung
NCI/ADR-RES ovarian = system: NCI/ADR-RES ovarian
OVCAR-3 ovarian = system: OVCAR-3 ovarian
OVCAR-4 ovarian = system: OVCAR-4 ovarian
OVCAR-5 ovarian = system: OVCAR-5 ovarian
OVCAR-8 ovarian = system: OVCAR-8 ovarian
PC-3 prostate = system: PC-3 prostate
RPMI-8226 leukemia = system: RPMI-8226 leukemia
RXF 393 renal = system: RXF 393 renal
SF-268 CNS = system: SF-268 CNS
SF-295 CNS = system: SF-295 CNS
SF-539 CNS = system: SF-539 CNS
SK-MEL-2 melanoma = system: SK-MEL-2 melanoma
SK-MEL-28 melanoma = system: SK-MEL-28 melanoma
SK-MEL-5 melanoma = system: SK-MEL-5 melanoma
SK-OV-3 ovarian = system: SK-OV-3 ovarian
SN12C renal = system: SN12C renal
SNB-19 CNS = system: SNB-19 CNS
SNB-75 CNS = system: SNB-75 CNS
SR leukemia = system: SR leukemia
SW-620 colon = system: SW-620 colon
T-47D breast = system: T-47D breast
TK-10 renal = system: TK-10 renal
U251 CNS = system: U251 CNS
UACC-257 melanoma = system: UACC-257 melanoma
UACC-62 melanoma = system: UACC-62 melanoma
UO-31 renal = system: UO-31 renal

## CC1(C)CC[C@]2(C(=O)O)CC[C@]3(C)C(=CCC4[C@@]5(C)C[C@@H](O)[C@@H]6OC(c7ccccc7F)OC[C@@]6(C)C5CC[C@]43C)C2C1 (stereo partly drawn)
786-0 renal
  GI50: 4.4 µM
  TGI: 16 µM
A498 renal
  GI50: 7.09 µM
  TGI: 20.2 µM
A549 NSCLC
  GI50: 1.62 µM
  TGI: 12.3 µM
ACHN renal
  GI50: 2.83 µM
  TGI: 12.3 µM
BT-549 breast
  GI50: 2.84 µM
  TGI: 11.3 µM
CAKI-1 renal
  GI50: 3.8 µM
  TGI: 14.4 µM
CCRF-CEM leukemia
  GI50: 2.53 µM
  TGI: 12.6 µM
COLO 205 colon
  GI50: 2.73 µM
  TGI: 8.52 µM
DU-145 prostate
  GI50: 6.27 µM
  TGI: 19.8 µM
EKVX NSCLC
  GI50: 3.16 µM
  TGI: 14.5 µM
HCC-2998 colon
  GI50: 3.49 µM
  TGI: 14.1 µM
HCT-116 colon
  GI50: 2.75 µM
  TGI: 11.7 µM
HCT-15 colon
  GI50: 2.14 µM
  TGI: 10.9 µM
HL-60(TB) leukemia
  GI50: 2.67 µM
  TGI: 9.82 µM
HOP-62 NSCLC
  GI50: 3.61 µM
  TGI: 15 µM
HOP-92 NSCLC
  GI50: 2.65 µM
  TGI: 11.9 µM
HS 578T breast
  GI50: 3.5 µM
  TGI: 16.2 µM
HT29 colon
  GI50: 3.6 µM
  TGI: 17.2 µM
IGROV1 ovarian
  GI50: 5.54 µM
  TGI: 18.1 µM
K-562 leukemia
  GI50: 2.66 µM
  TGI: 84.2 µM
KM12 colon
  GI50: 3.7 µM
  TGI: 15.1 µM
LOX IMVI melanoma
  GI50: 3.49 µM
  TGI: 14.2 µM
M14 melanoma
  GI50: 6.64 µM
  TGI: 20.6 µM
MALME-3M melanoma
  GI50: 5.08 µM
  TGI: 17.9 µM
MCF7 breast
  GI50: 3.42 µM
  TGI: 14.6 µM
MDA-MB-231 breast
  GI50: 9.03 µM
  TGI: 21.3 µM
MDA-MB-435
  GI50: 5.58 µM
  TGI: 18.6 µM
MDA-MB-468 breast
  GI50: 3.37 µM
  TGI: 14 µM
MOLT-4 leukemia
  GI50: 2.09 µM
  TGI: 12 µM
NCI-H226 lung
  GI50: 3.3 µM
  TGI: 15.1 µM
NCI-H23 lung
  GI50: 3.97 µM
  TGI: 15.7 µM
NCI-H460 lung
  GI50: 3.67 µM
  TGI: 14.1 µM
NCI-H522 lung
  GI50: 3.79 µM
  TGI: 16.8 µM
NCI/ADR-RES ovarian
  GI50: 3.11 µM
  TGI: 14.5 µM
OVCAR-3 ovarian
  GI50: 3.23 µM
  TGI: 13.1 µM
OVCAR-4 ovarian
  GI50: 5.19 µM
  TGI: 19.4 µM
OVCAR-5 ovarian
  GI50: 9.04 µM
  TGI: 21.1 µM
OVCAR-8 ovarian
  GI50: 3.41 µM
  TGI: 15.6 µM
PC-3 prostate
  GI50: 3.21 µM
  TGI: 18.3 µM
RPMI-8226 leukemia
  GI50: 2.09 µM
  TGI: 16.1 µM
RXF 393 renal
  GI50: 2.54 µM
  TGI: 7.92 µM
SF-268 CNS
  GI50: 5.04 µM
  TGI: 20.7 µM
SF-295 CNS
  GI50: 2.72 µM
  TGI: 13 µM
SF-539 CNS
  GI50: 3.65 µM
  TGI: 13 µM
SK-MEL-2 melanoma
  GI50: 4.83 µM
  TGI: 20 µM
SK-MEL-28 melanoma
  GI50: 5.96 µM
  TGI: 18.4 µM
SK-MEL-5 melanoma
  GI50: 3.39 µM
  TGI: 12.7 µM
SK-OV-3 ovarian
  GI50: 4.51 µM
  TGI: 17.4 µM
SN12C renal
  GI50: 3.57 µM
  TGI: 15.7 µM
SNB-19 CNS
  GI50: 3.75 µM
  TGI: 15.8 µM
SNB-75 CNS
  GI50: 2.77 µM
  TGI: 15 µM
SR leukemia
  GI50: 3.29 µM
  TGI: 21.9 µM
SW-620 colon
  GI50: 4.34 µM
  TGI: 16.4 µM
T-47D breast
  GI50: 6.64 µM
  TGI: 24.7 µM
TK-10 renal
  GI50: 6.03 µM
  TGI: 19.8 µM
U251 CNS
  GI50: 2.63 µM
  TGI: 12.9 µM
UACC-257 melanoma
  GI50: 4.68 µM
  TGI: 18.2 µM
UACC-62 melanoma
  GI50: 5.02 µM
  TGI: 18 µM
UO-31 renal
  GI50: 2.53 µM
  TGI: 13.5 µM
